# Assays:
# ERK/MDM2 complex = experiment: Levels of ERK/MDM2 complex in U87MG cells (ELISA); assay type: cell-based, human
# Experimental: (§1) U87MG cells were treated with DMSO (control), EB148 or EB54 for different times. When indicated, after 8 h of incubation, cells were washed twice with fresh saline and cultured in drug-free medium for an additional 24 h. At the end of the treatment period, the cells were collected, and suspended in lysis buffer containing 1% of the Protease inhibitor Cocktail.
# ERK1/2 = ERK1/2 phosphorylation ELISA in U87MG cells; assay type: cell-based, human; conditions: for ERK1/2 phosphorylation: 1 μM, up to 8 h; for effect of blocking p53 on compound-mediated ERK1/2 activation: pifithrin-β 1 μM 30 min, then compound 1 μM 2 h
# Experimental: Figure 10 ERK phosphorylation and levels of ERK/MDM2 complex in U87MG cells A. U87MG cells were treated with DMSO (control), 1 μΜ EB148 or 1 μΜ EB54 for the indicated times; in some experiments, after 2 h of treatment the medium was replaced by fresh medium not containing drugs for an additional 2 h. At the end of the treatment period the levels of ERK 1/2 phosphorylation were evaluated using ELISA kits, as described in the Methods section. The data are expressed as the percentage of phosphorylated ERK1/2 versus untreated cells (control), which were set at 100%. Data are the mean values ± SEM of three independent experiments performed in triplicate. Analysis of significant differences in mean ERK/MDM2 complex levels was performed using one-way ANOVA with a Bonferroni post-test: * p< 0.05, ** p< 0.01, *** p<0.001 vs. control. […] C. U87MG cells were treated with DMSO (control), 1 μΜ EB148 or 1 μΜ EB54 for the indicated times; in some experiments, after 8 h of treatment, the medium was replaced by fresh medium not containing drugs for an additional 24 h. At the end of the treatment period, U87MG cells were collected and suspended in lysis buffer. Equal amounts of cell lysates were captured on wells pre-coated with MDM2 antibody. After extensive washing, the levels of the ERK/MDM2 complex were quantified using an antibody specific for ERKs, and subsequently an HRP-conjugated antibody and a TMB substrate kit. Data are expressed as percentage of control set to 100%, and represent the mean ± SEM of three independent experiments. The significance of the differences was determined with a one-way ANOVA with Bonferroni post-test: * p<0.05, ** p<0.01, *** p<0.001 vs. control.
# [1] = tested on: mitochondria isolated from U87MG cells; experiment: Mitochondrial membrane potential (Δψm) dissipation, JC-1 protocol; assay type: biochemical, human; conditions: 1 μM, 20 min; for JC-1 accumulation (Δψm) compared to control untreated mitochondria: isolated mitochondria
# Experimental: The Δψm dissipation was assessed using the fluorescent dye 5,59,6,69-tetrachloro1,19,3,39-tetraethylbenzimidazolylcarbocyanine iodide (JC-1). Mitochondria were isolated from U87MG cells using the Mitochondria Isolation Kit (Sigma Aldrich, Milan, Italy) following manufacturer's instructions.
# Isolated mitochondria were treated for 20 min with EB54 or EB148 (1 μM). In wash-out experiments, mitochondria were then centrifuged at 11.000 × g for 5 min, washed with fresh saline and suspended in JC-1 buffer not containing the drugs. At the end of treatments, 5 μg of control and treated mitochondria were added to the JC-1 dye. The fluorescence (relative fluorescence units, RFU) of the sample was read in a spectrofluorimeter using a time-drive method (one acquisition each 10 sec, for 10 min), where the excitation wavelength was set to 490 nm and emission wavelength at 590 nm. […] Consequently, mitochondrial depolarization is indicated by a decrease in the orange-red fluorescence intensity.
# U87MG cells [2] = experiment: Annexin V and 7-AAD staining (apoptosis); assay type: cell-based, human; conditions: 1 μM, 24 h
# Experimental: Dual staining with Annexin V coniugated to fluorescein-isothiocyanate (FITC) and 7-amino-actinomysin (7-AAD) was performed using the commercially available kit (Muse Annexin V and Dead Cell Kit; Merck KGaA, Darmstadt, Germany).
# U87MG cells were treated with DMSO (control), EB54 or EB148 (1 μM) for 24 h. Both floating and adherent cells were collected, and incubated for 10 min at room temperature with the fluorescent reagent. After incubation, the percentages of living, apoptotic and dead cells were acquired and analyzed by MuseTM Cell Analyzer in accordance to the manufacture's guidelines.
# [3] = tested on: p53 target genes (p53, p21 and MDM2); experiment: Relative mRNA quantification of p53 target genes by real-time RT-PCR; assay type: cell-based, human; conditions: for levels of p53 target gene transcripts after wash-out: treated for 2 h (text; legend: 16 h), washed out for 16 h in drug-free medium
# Experimental: In brief, total RNA was extracted from control cells as well as from cells treated with EB148 or EB54 (1 μM) for different times (8 h, 16 h or 24 h), using RneasyH Mini Kit (Qiagen, Hilden, Germany), according to manufacturer's instructions. cDNA synthesis was performed with 500 ng of RNA using i-Script cDNA synthesis kit (BioRad, Hercules, USA). RT-PCR reactions consisted of 25 μl FluocycleH II SYBRH (Euroclone, Milano, Italy), 1.5 μl of both 10 μM forward and reverse primers (listed in [56]), 3 μl cDNA, and 19 μL of H2O. […] PCR specificity was verified by both the melting curve analysis and gel electrophoresis.
# [4] = Stability test in aqueous solution by HPLC; assay type: physicochemical; conditions: 1 μM in PBS with 1% DMSO, within 72 h
# Experimental: To test the stability of EB148 in aqueous solution, the compound was dissolved in DMSO and diluted with PBS to the final 1 μM concentration (the amount of DMSO in the final solution was 1%). The solution was maintained in a closed vial and analysed by HPLC at specific times (4, 8, 24, 48 and 72 h) using the following conditions: column Shim-pack VP-ODS 4.6 μm (250 mm × 4.6 mm), isocratic elution with water, flow rate of 1 ml/min, room temperature. The percentage of decomposition was calculated on the base of peak area of the product.
# p53 protein = p53 protein accumulation by western blotting; assay type: cell-based, human; conditions: for p53 protein levels after wash-out: 1 μM for 16 h, then wash-out of 16 h; for p53 protein levels: 1 μM, 16 h
# Experimental: U87MG were treated with DMSO (control), EB148 or EB54 for 16 h. […] […] Glyceraldehyde-3-phosphate dehydrogenase (GAPDH) was the loading control ([…], Sigma Aldrich, Milan, Italy, 1:5000). The primary antibodies were detected using the appropriate peroxidase-conjugated secondary antibodies, which were then detected using a chemioluminescent substrate (ECL, Perkin Elmer). Densitometric analysis of the immunoreactive bands was performed using Image J Software.
# MDM2/p53 complex [5] = molecular target: T1, MDM2/p53 complex (Homo sapiens, UniProt Q00987); experiment: Dissociation of native MDM2/p53 complex, sandwich immuno-enzymatic assay on U87MG cell lysates; assay type: biochemical
# T1 construct: endogenous in cells; host or cells: crude lysates of U87MG human glioblastoma cells
# Experimental: Cells were washed twice in ice-cold phosphate-buffered saline, collected by centrifugation, and suspended in lysis buffer (20 mM Tris HCl, 137 mM NaCl, 10% glycerol, 1% NONIDET40, 2 mM EDTA, pH 8) containing 1% of the Protease inhibitor Cocktail (Sigma Aldrich, Milan, Italy). 96-wells were pre-coated with a mouse full-length anti-MDM2 antibody (sc-965, Santa Cruz Biotechnology, 1:50 in 0.05% Poly-L-Ornithine) overnight at room temperature. Cell lysates (20 μg in a final volume of 100 μl) were pre-incubated with DMSO (control), or different compound concentration for 10 min at room temperature, and then transferred to the pre-coated wells for 60 min. After three quick washes with PBS/Tween 0.05% to remove unbound MDM2, each well was incubated for 15 min with 1% BSA, to block nonspecific sites, and then for 1.5 h at room temperature with a rabbit primary anti-p53 antibody (sc-6243, Santa Cruz Biotechnology, 1:250). Then, wells were washed and incubated for 1 h with an anti-rabbit HRP-conjugate antibody, and washed again. […] Blanks were obtained processing cell lysates in the absence of the primary anti-p53 antibody.
# U87MG cells [6] = experiment: U87MG cell proliferation, MTS assay; assay type: cell-based, human; conditions: for cell proliferation 72 h after cell wash-out: U87MG, 72 h treatment, then drug-free medium 72 h
# Experimental: The effects of compound treatment on U87MG cell viability and proliferation were evaluated by Trypan blue exclusion assays and MTS assay, respectively. […] For quantization of cell viability, blue and bright cells were counted, and viability was calculated as the number of living (bright) and dead (blue) cells in each well.
# The absorbance of formazan at 490 nm was measured in a colorimetric assay with an automated plate reader (Victor Wallac 2, Perkin Elmer). For wash-out experiments, U87MG cells were treated with EB148 or EB54 (100 nM-10 μM) for 72 h. Following incubation, medium-containing drugs was replaced by fresh medium, and cells were allowed to growth for the indicated days. At the end of treatments, cell proliferation was measured by MTS assay. The results were calculated by subtracting the mean background from the values obtained from each evaluation and were expressed as the percentage of the control (untreated cells). Sigmoid dose-response curve was generated, from which the IC50 values were derived.
# U87MG cells [7] = experiment: U87MG cell viability, trypan blue exclusion test; assay type: cell-based, human; conditions: 72 h, maximal effect at 100 μM
# Experimental: The effects of compound treatment on U87MG cell viability and proliferation were evaluated by Trypan blue exclusion assays and MTS assay, respectively. U87MG cells were treated with EB148 or EB54 for 72 h. Following treatment, harvested cells were mixed with an equal volume of 0.4% trypan blue dye. For quantization of cell viability, blue and bright cells were counted, and viability was calculated as the number of living (bright) and dead (blue) cells in each well. To establish the effect of MDM2 inhibitors on cell proliferation, cells were treated for 72 h with different concentrations of each compound (0.1 nM–100 μM) for 72 h, and then MTS assay was performed according to the manufacturer's instructions.
# human TSPO [8] = molecular target: T2, human TSPO (Homo sapiens, UniProt P30536); experiment: Equilibrium [3H]PK11195 radioligand binding assay in U87MG cell membranes
# T2 construct: aliquots of U87MG cell membranes (20 μg of proteins) were incubated with [^3H]PK 11195 (1.5 nM); endogenous in cells; host or cells: U87MG human glioblastoma cell membranes
# Experimental: Equilibrium radioligand binding assays were performed essentially as previously described. […] Samples were rapidly filtered under vacuum through GF/C glass fiber filters.
# human TSPO [9] = molecular target: T2, human TSPO; experiment: TSPO association/dissociation and competition kinetics with [3H]PK11195; assay type: binding; conditions: for Kd: calculated as ratio of estimated koff and kon
# Description: Association and dissociation rate constants for [^3H]
# For competition kinetics, the [^3H]
# MDM2/p53 complex [10] = molecular target: T1, MDM2/p53 complex; experiment: Association and dissociation kinetics towards MDM2 in U87MG cell lysates; assay type: biochemical; conditions: lysates treated at ten-fold IC50, diluted 1:20, 0-180 min
# Experimental: Following incubation, cell lysates were captured on wells pre-coated with MDM2 antibody for an additional 60 min.
# Dissociation was initiated by the addition of 20 volumes of cold buffer, and lysates were further incubated at 4°C for the indicated times (0-180 min). Following incubation, 200 μl of the mixture were captured on wells pre-coated with MDM2 antibody for an additional 60 min.
# [11] = tested on: mesenchymal Stem Cells (MSCs) isolated from human bone marrow; experiment: Toxicity in non-tumour cells, MSC proliferation by MTS assay; assay type: cell-based; conditions: 72 h; EB54 at 10 μM; EB148 up to the highest concentration tested
# Experimental: […]. At the end of treatments, cell proliferation was measured by MTS assay.
# p53/MDM2 complex = molecular target: T3, p53/MDM2 complex (Homo sapiens, UniProt Q00987); experiment: Levels of p53/MDM2 complex in U87MG whole cells (ELISA); assay type: cell-based
# T3 construct: endogenous in cells; host or cells: U87MG human glioblastoma cells, treated whole and then lysed
# Experimental: as §1
# T2 sequence (P30536 whole entry): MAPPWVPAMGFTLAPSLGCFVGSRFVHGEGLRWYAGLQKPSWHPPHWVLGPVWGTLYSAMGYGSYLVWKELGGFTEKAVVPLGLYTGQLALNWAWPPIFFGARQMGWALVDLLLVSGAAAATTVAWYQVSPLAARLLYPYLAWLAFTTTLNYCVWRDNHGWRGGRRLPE
# T3 sequence (Q00987 whole entry, one chain of several): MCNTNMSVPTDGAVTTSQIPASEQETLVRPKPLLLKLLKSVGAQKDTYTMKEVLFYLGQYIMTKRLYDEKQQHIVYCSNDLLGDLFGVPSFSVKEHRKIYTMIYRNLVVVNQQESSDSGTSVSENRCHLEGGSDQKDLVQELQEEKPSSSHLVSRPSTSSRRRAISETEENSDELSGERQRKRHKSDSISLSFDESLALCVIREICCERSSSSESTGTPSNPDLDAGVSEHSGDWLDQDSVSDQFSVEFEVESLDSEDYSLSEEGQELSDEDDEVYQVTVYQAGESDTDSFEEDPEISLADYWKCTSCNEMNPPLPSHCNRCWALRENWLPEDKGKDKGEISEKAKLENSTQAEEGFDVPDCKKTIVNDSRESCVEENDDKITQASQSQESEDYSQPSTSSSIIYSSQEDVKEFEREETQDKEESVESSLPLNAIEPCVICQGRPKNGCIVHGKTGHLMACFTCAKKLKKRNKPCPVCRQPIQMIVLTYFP
# T1 sequence (Q00987 whole entry, one chain of several): as above
SMILES,ERK1/2 phosphorylation (ERK1/2),effect of blocking p53 on compound-mediated ERK1/2 activation (ERK1/2),JC-1 accumulation (Δψm) compared to control untreated mitochondria [1],phosphatidylserine externalization (early and late apoptosis) (U87MG cells [2]),levels of p53 target gene transcripts after wash-out [3],p53 protein levels after wash-out (p53 protein),p53 protein levels (p53 protein),cell proliferation 72 h after cell wash-out (U87MG cells [6]),total number of living cells (U87MG cells [7]),Ki (human TSPO [8]),koff (human TSPO [9]),kon (human TSPO [9]),Kd (human TSPO [9]),MSC viability/proliferation [11],further results
CCOC(=O)[C@@H](Cc1ccccc1)NC(=O)[C@H](CC(C)C)NC(=O)C(=O)c1c(-c2ccccc2)[nH]c2ccc(N=C=S)cc12 [EB148],significant ERK phosphorylation,completely impaired,significant reduction,significant phoshpatidilserine externalization,returned to control values,maintained high p53 levels,slight but significant increase,inhibition of cell proliferation was maintained,reduced the total number of living cells,199 ± 18 nM,8.01e-05 s⁻¹,5350 M⁻¹ s⁻¹,150 nM,did not affect MSC proliferation,"ERK/MDM2 association after cell wash-out (ERK/MDM2 complex; 1 μM for 8 h, then wash-out for 24 h): remained significant; ERK/MDM2 complex formation (ERK/MDM2 complex; 1 μM, 8 and 24 h): significant and marked induction; ERK activation after cell wash-out (ERK1/2; 1 μM for 2 h, then drug-free medium for 2 h): continued to significantly activate; Δψm after mitochondria wash-out ([1]; then centrifuged and washed to remove the ligands): determined Δψm collapse; induction of MDM2 mRNA ([3]; 1 μM, 8 h): 6.9 fold; induction of MDM2 mRNA ([3]; 1 μM, 16 h): 8.8 fold; induction of MDM2 mRNA ([3]; 1 μM, 24 h): 2.2 fold; mRNA expression of p53 target genes ([3]; 1 μM, up to 24 h of cell treatment): sustained increase; average peak area (stability in aqueous solution) [4]: 98.83 ± 0.47%; IC50 (MDM2/p53 complex [5]): 6.81 ± 0.79 nM; IC50 (U87MG cells [6]; Homo sapiens, U-87 MG, 72 h, read-out: IC50 of cell proliferation): 91.6 ± 8.9 nM; activity in inhibiting p53-MDM2 complex after sample dilution (MDM2/p53 complex [10]): maintained unchanged; p53-MDM2 complex formation after 24 h cell wash-out (p53/MDM2 complex; 1 μM for 8 h, then 24 h wash-out): significantly lower than in the control; p53-MDM2 complex in whole cells (p53/MDM2 complex; 1 μM, 8 h): inhibited"
CCOC(=O)[C@@H](Cc1ccccc1)NC(=O)[C@H](CC(C)C)NC(=O)C(=O)c1c(-c2ccccc2)[nH]c2ccccc12 [EB54],did not induce any significant ERK1/2 stimulation,did not significantly affect,significant reduction,significant phoshpatidilserine externalization,down-regulated,control levels,slight but significant increase,significant recovery in proliferative activity,reduced the total number of living cells,108 ± 10 nM,0.000482 s⁻¹,3600 M⁻¹ s⁻¹,134 nM,significantly decreased,"mRNA expression level of p21, p53 and MDM2 ([3]; 1 μM, 8 and 16 h): significant increase; mRNA expression of p21, p53 and MDM2 ([3]; 1 μM, after 24 h): significantly lower than controls"
